Assay results published in BindingDB's records for doi:10.1074/jbc.M113.514646 (Emory University, 2014).

Assays:
Assay in all cases: Ligand Binding Assay
Conditions in all cases: pH 8.2; 30 °C
[1] = target: Fatty acid-binding protein 5 (Homo sapiens, UniProt Q01469)
Excerpt: (§1) In brief, both wild-type and mutant hFABP5 were expressed and purified to homogeneity as described above and dialyzed in PBS (pH 8.2). […] Blank measurements obtained from protein-only samples were subtracted at each protein concentration tested to obtain the final values. […] Blanks consisting of 1,8-ANS and fatty acid in the absence of protein were subtracted at each ligand concentration tested. The resulting fluorescence values were used to calculate a Ki value for the fatty acid of interest. Data were collected at 30 °C on a BioTek Synergy plate reader using an excitation filter of 380/20nm and an emission filter of 460/40nmand processed inGraphPad Prism 5.

[2] = target: Fatty acid-binding protein 5 [K24A,R33A,K34A] (Homo sapiens, UniProt Q01469, K24A/K34A/R33A)
Excerpt: as §1

[3] = target: Fatty acid-binding protein 5 [M35A,L60A] (Homo sapiens, UniProt Q01469, L60A/M35A)
Excerpt: as §1

Chain of Fatty acid-binding protein 5 (Q01469 whole entry): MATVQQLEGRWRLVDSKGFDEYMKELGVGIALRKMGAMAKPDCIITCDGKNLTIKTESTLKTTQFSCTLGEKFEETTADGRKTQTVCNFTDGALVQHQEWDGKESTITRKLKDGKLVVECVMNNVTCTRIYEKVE
Chain of Fatty acid-binding protein 5 [K24A,R33A,K34A] (Q01469 2-135 K24A/R33A/K34A limits assumed): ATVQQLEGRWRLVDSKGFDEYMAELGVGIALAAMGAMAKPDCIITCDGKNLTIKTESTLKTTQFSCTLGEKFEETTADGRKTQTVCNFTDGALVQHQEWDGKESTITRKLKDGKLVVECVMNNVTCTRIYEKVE
Chain of Fatty acid-binding protein 5 [M35A,L60A] (Q01469 2-135 M35A/L60A limits assumed): as the sequence (Q01469 2-135 K24A/R33A/K34A limits assumed) above, with A23K, A32R, A33K, M34A, L59A counted along it

Row | Structure (SMILES) | Ki [1] | Ki [2] | Ki [3] | Kd [1] | Kd [2] | Kd [3]
1 | CCCCC/C=C\C/C=C\C/C=C\C/C=C\CCCC(=O)O [[1-14C]Arachidonic acid] | 2590 nM | 9370 nM | 5010 nM | – | – | –
2 | CCCCC/C=C\C/C=C\CCCCCCCC(=O)O | 1260 nM | 2170 nM | 3470 nM | – | – | –
3 | CCCCCC/C=C\CCCCCCCC(=O)O [(9Z)-hexadec-9-enoic acid] | 1360 nM | 1640 nM | 1780 nM | – | – | –
4 | CCCCCCCCN[C@H]1C=C(CO)[C@@H](O)[C@H](O)[C@H]1O [NOEV] | 1100 nM | 1240 nM | 700 nM | – | – | –
5 | O=S(=O)(O)c1cccc2cccc(Nc3ccccc3)c12 [ANS] | – | – | – | 6570 nM | 12600 nM | 6100 nM
